pIC50: −log10 of the molar value.
Tested on: 324938-238-R-J1-PDC complex spheroids viability
Test: Anticancer human tumor 324938-238-R-J1-PDC patient-derived bladder carcinoma cell line growth inhibition [CLK]
Settings: for pIC50: curve of first compound; for viability, T/C: stronger effect = lower value
Description: A high-throughput screen of multi-cell type tumor spheroids was designed to identify active combinations of […] and targeted small molecules. Complex spheroids include a stromal component modeled by human endothelial cells (HUVEC) and fibroblasts modeled by human mesenchymal stem cells (MSCs). The concentration ranges selected for each drug and investigational agent were based upon clinically achievable concentrations if the clinical Cmax of the agent was known.
Compounds. The drugs and investigational agents: cirtuvivint (SM08502; NSC835563), CC-671 (NSC850746), vemurafenib (NSC761431), tapotoclax (NSC804041), sotorasib (NSC818433), adagrasib (NSC831453), MRTX-1133 (NSC836407), BAY2416964 (NSC825713), copanlisib (NSC816437), inavolisib (NSC800729), abemaciclib (NSC768073), osimertinib (NSC779217), entinostat (NSC756642), eltanexor (KPT-8602, NSC794443), venetoclax (NSC766270), ceralasertib (NSC777638), bortezomib (NSC756655), olaparib (NSC753686), talazoparib (NSC767125), alisertib (NSC759677), peposertib (NSC802822), gemcitabine (NSC613327), 5-fluorouracil (NSC19893), SN-38 (NSC673596), oxaliplatin (NSC266046), paclitaxel (NSC125973), and doxorubicin (NSC123127), were obtained from the National Cancer Institute (NCI) Developmental Therapeutics Program Chemical Repository. The FDA-approved anticancer drug set is available from the Developmental Therapeutics Program at https://dtp.cancer.gov/organization/dscb/obtaining/available plates.htm. […] The stock solutions were prepared in dimethyl sulfoxide (DMSO, Sigma-Aldrich, St. Louis, MO, cat. D2650), except for the platinum complexes which were prepared in saline (Quality Biological, Gaithersburg, MD, cat. 114-055-101), at 800-fold the tested concentration and stored at -70 degrees C prior to their use. All drugs and investigational agents were tested over a range starting from a high concentration at or near the clinical Cmax and decreasing in half-log increments. If the clinical Cmax for an agent had not been determined, the highest concentration tested was 10 microM.
Cell Culture. All cells were maintained in an incubator at 37 degrees C and 5% CO2 with 95% humidity. The PDC lines were cultured according to standard operating procedures established by the NCI PDMR. Briefly, all PDCs were thawed and cultured in Matrigel-coated flasks prepared with a working solution of 1X Ham's F-12 nutrient mix, without supplementation (Invitrogen, Waltham, MA, cat. 11765054), 100 U/mL penicillin-streptomycin (Invitrogen, cat. 15140122), and 2.5% Matrigel (Corning Inc., Corning, NY, cat. 354248) for the first three passages. The 947758-054-R-J2-PDC line was cultured in 6B/Colon 1A media, which includes advanced DMEM/F-12 (Thermo Fisher Scientific, cat. 12634028), 10 mM HEPES (Thermo Fisher Scientific, cat. 15630080), 1X GlutaMAX supplement (Thermo Fisher Scientific, cat. 35050061), 0.1 mg/mL primocin (InvivoGen, cat. ant-pm-2), 10% defined fetal bovine serum, heat inactivated (HyClone Laboratories Inc., cat. SH30070.03HI), 1.25 mM N-Acetyl-L-cysteine (Sigma-Aldrich, cat. A9165), 10 mM nicotinamide (Sigma-Aldrich, cat. N0636), 1X B-27 supplement (Thermo Fisher Scientific, cat. 17504044), 1X N-2 supplement (Thermo Fisher Scientific, cat. 17502048), and 10 microM Y-27632 dihydrochloride (Tocris Bioscience, cat. 1254). The 876862-298-R-J1-PDC was cultured in 6E media, which includes all 6B/Colon 1A media components plus 50% L-WRN conditioned media (ATCC, cat. CRL-3276), 50 ng/mL recombinant human EGF recombinant protein (hEGF; Thermo Fisher Scientific, cat. PHG0311), 10 ng/mL recombinant human fibroblast growth factor 10 (hGFG-10; PeproTech, cat. 100-26), 1 ng/mL recombinant human fibroblast growth factor 2 (hFGF-2; PeproTech, cat. 100-18B), and 1 µM prostaglandin E2 (PGE2; Tocris, cat. 2296). The 227483-062-R1-J1-PDC line was cultured in Panc media, containing all 6E components except hFGF-2, with the addition of 500 nM SB-431542 (Selleckchem, cat. S1067) and 10 nM gastrin (Tocris, cat. 3006). […]

[1] = second compound 0.0316 µM, first compound 0.0316 µM
[2] = second compound 0.0316 µM, first compound 0.1 µM
[3] = second compound 0.0316 µM, first compound 0.316 µM
[4] = second compound 0.0316 µM, first compound 1 µM
[5] = second compound 0.0316 µM, first compound 3.16 µM
[6] = second compound 0.0316 µM, first compound 10 µM
[7] = second compound 0.1 µM, first compound 0.0316 µM
[8] = second compound 0.1 µM, first compound 0.1 µM
[9] = second compound 0.1 µM, first compound 0.316 µM
[10] = second compound 0.1 µM, first compound 1 µM
[11] = second compound 0.1 µM, first compound 3.16 µM
[12] = second compound 0.1 µM, first compound 10 µM
[13] = second compound 0.316 µM, first compound 0.0316 µM
[14] = second compound 0.316 µM, first compound 0.1 µM
[15] = second compound 0.316 µM, first compound 0.316 µM
[16] = second compound 0.316 µM, first compound 1 µM
[17] = second compound 0.316 µM, first compound 3.16 µM
[18] = second compound 0.316 µM, first compound 10 µM
[19] = second compound 1 µM, first compound 0.0316 µM
[20] = second compound 1 µM, first compound 0.1 µM
[21] = second compound 1 µM, first compound 0.316 µM
[22] = second compound 1 µM, first compound 1 µM
[23] = second compound 1 µM, first compound 3.16 µM
[24] = second compound 1 µM, first compound 10 µM
[25] = second compound 3.16 µM, first compound 0.0316 µM
[26] = second compound 3.16 µM, first compound 0.1 µM
[27] = second compound 3.16 µM, first compound 0.316 µM
[28] = second compound 3.16 µM, first compound 1 µM
[29] = second compound 3.16 µM, first compound 3.16 µM
[30] = second compound 3.16 µM, first compound 10 µM
[31] = second compound 10 µM, first compound 0.0316 µM
[32] = second compound 10 µM, first compound 0.1 µM
[33] = second compound 10 µM, first compound 0.316 µM
[34] = second compound 10 µM, first compound 1 µM
[35] = second compound 10 µM, first compound 3.16 µM
[36] = second compound 10 µM, first compound 10 µM
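Note: viability read after seven days of drug exposure.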
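Throughout, for viability, T/C: 100% = DMSO vehicle control wells.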

Q: What does the source list for `O=C(c1cc(Cc2n[nH]c(=O)c3ccccc23)ccc1F)N1CCN(C(=O)C2CC2)CC1` + CN1CCN(c2cc(C(=O)Nc3cc4cc(-c5cnn(C)c5)ccc4cn3)ccn2)CC1?
A: pIC50 (second compound 0.0316 µM): 5.39; pIC50 (second compound 0.1 µM): > 7.50; pIC50 (second compound 0.316 µM): > 7.50; pIC50 (second compound 1 µM): > 7.50; pIC50 (second compound 3.16 µM): > 7.50; pIC50 (second compound 10 µM): > 7.50; viability, T/C [1]: 76.9%; viability, T/C [2]: 76.8%; viability, T/C [3]: 65.2%; viability, T/C [4]: 70.5%; viability, T/C [5]: 55.5%; viability, T/C [6]: 29.6%; viability, T/C [7]: 46.9%; viability, T/C [8]: 50.8%; viability, T/C [9]: 42.5%; viability, T/C [10]: 49.2%; viability, T/C [11]: 36.4%; viability, T/C [12]: 19.4%; viability, T/C [13]: 20.6%; viability, T/C [14]: 24.1%; viability, T/C [15]: 19.9%; viability, T/C [16]: 19.9%; viability, T/C [17]: 18.9%; viability, T/C [18]: 16.4%; viability, T/C [19]: 1.69%; viability, T/C [20]: 1.71%; viability, T/C [21]: 1.98%; viability, T/C [22]: 1.94%; viability, T/C [23]: 2.27%; viability, T/C [24]: 1.74%; viability, T/C [25]: 0.26%; viability, T/C [26]: 0.21%; viability, T/C [27]: 0.25%; viability, T/C [28]: 0.1%; viability, T/C [29]: 0.36%; viability, T/C [30]: 0.49%; viability, T/C [31]: 0.11%; viability, T/C [32]: 0.21%; viability, T/C [33]: 0.24%; viability, T/C [34]: 0.17%; viability, T/C [35]: 0.26%; viability, T/C [36]: 0.28%

Q: How did the pIC50 (second compound 0.0316 µM) turn out when `Nc1ccccc1NC(=O)c1ccc(CNC(=O)OCc2cccnc2)cc1` + CN1CCN(c2cc(C(=O)Nc3cc4cc(-c5cnn(C)c5)ccc4cn3)ccn2)CC1 was run?
A: The pIC50 was 5.92.

Q: What about the pIC50 (second compound 0.1 µM) of the same compound?
A: The pIC50 was 6.76.

Q: And the pIC50 (second compound 0.316 µM)?
A: The pIC50 was greater than 7.50.

Q: And the pIC50 (second compound 1 µM)?
A: Its pIC50 is greater than 7.50.

Q: And the pIC50 (second compound 3.16 µM)?
A: Its pIC50 is greater than 7.50.

Q: What about the pIC50 (second compound 10 µM) of the same compound?
A: Its pIC50 is greater than 7.50.

Q: And the viability, T/C [1]?
A: Its viability, T/C is 80.2%.

Q: What about the viability, T/C [2] of the same compound?
A: Its viability, T/C is 88.1%.

Q: What about the viability, T/C [3] of the same compound?
A: Its viability, T/C is 70.5%.

Q: And the viability, T/C [4]?
A: Its viability, T/C is 52.5%.

Q: And the viability, T/C [5]?
A: The viability, T/C was 32.2%.

Q: What about the viability, T/C [6] of the same compound?
A: The viability, T/C was 14.2%.

Q: What about the viability, T/C [7] of the same compound?
A: Its viability, T/C is 58.5%.

Q: And the viability, T/C [8]?
A: The viability, T/C was 50%.

Q: And the viability, T/C [9]?
A: The viability, T/C was 44.8%.

Q: What about the viability, T/C [10] of the same compound?
A: Its viability, T/C is 39.6%.

Q: What about the viability, T/C [11] of the same compound?
A: Its viability, T/C is 30.6%.

Q: And the viability, T/C [12]?
A: Its viability, T/C is 7.44%.

Q: And the viability, T/C [13]?
A: Its viability, T/C is 21.6%.

Q: What about the viability, T/C [14] of the same compound?
A: Its viability, T/C is 26%.

Q: What about the viability, T/C [15] of the same compound?
A: The viability, T/C was 20.6%.

Q: What about the viability, T/C [16] of the same compound?
A: The viability, T/C was 21.1%.

Q: What about the viability, T/C [17] of the same compound?
A: Its viability, T/C is 24.1%.

Q: What about the viability, T/C [18] of the same compound?
A: Its viability, T/C is 0.19%.

Q: What about the viability, T/C [19] of the same compound?
A: Its viability, T/C is 1.99%.

Q: And the viability, T/C [20]?
A: Its viability, T/C is 3.65%.

Q: What about the viability, T/C [21] of the same compound?
A: The viability, T/C was 4%.

Q: And the viability, T/C [22]?
A: Its viability, T/C is 2.6%.

Q: What about the viability, T/C [23] of the same compound?
A: Its viability, T/C is 0.16%.

Q: And the viability, T/C [24]?
A: Its viability, T/C is 0.13%.

Q: And the viability, T/C [25]?
A: The viability, T/C was 0.13%.

Q: And the viability, T/C [26]?
A: Its viability, T/C is 0.14%.

Q: And the viability, T/C [27]?
A: Its viability, T/C is 0.15%.

Q: What about the viability, T/C [28] of the same compound?
A: The viability, T/C was 0.1%.

Q: And the viability, T/C [29]?
A: The viability, T/C was 0.1%.

Q: What about the viability, T/C [30] of the same compound?
A: The viability, T/C was 0.16%.

Q: And the viability, T/C [31]?
A: The viability, T/C was 0.06%.

Q: And the viability, T/C [32]?
A: Its viability, T/C is 0.13%.

Q: What about the viability, T/C [33] of the same compound?
A: The viability, T/C was 0.14%.

Q: What about the viability, T/C [34] of the same compound?
A: The viability, T/C was 0.13%.

Q: And the viability, T/C [35]?
A: Its viability, T/C is 0.18%.

Q: And the viability, T/C [36]?
A: Its viability, T/C is 0.2%.

Source: PubChem BioAssay AID2060621 (Molecular Pharmacology Branch, DTP, NCI, 2025)
